We go through 3 compounds from ChEMBL document CHEMBL1201862, “PubChem BioAssay data set” (2004).

Molecules are shown by their SMILES. The source made the active and inactive calls. Where only a bound is given, the exact number is not on record here.

The target of experiment [1] is T1, Apoptotic protease-activating factor 1 (Homo sapiens, UniProt O14727).
T1 sequence (O14727 whole entry): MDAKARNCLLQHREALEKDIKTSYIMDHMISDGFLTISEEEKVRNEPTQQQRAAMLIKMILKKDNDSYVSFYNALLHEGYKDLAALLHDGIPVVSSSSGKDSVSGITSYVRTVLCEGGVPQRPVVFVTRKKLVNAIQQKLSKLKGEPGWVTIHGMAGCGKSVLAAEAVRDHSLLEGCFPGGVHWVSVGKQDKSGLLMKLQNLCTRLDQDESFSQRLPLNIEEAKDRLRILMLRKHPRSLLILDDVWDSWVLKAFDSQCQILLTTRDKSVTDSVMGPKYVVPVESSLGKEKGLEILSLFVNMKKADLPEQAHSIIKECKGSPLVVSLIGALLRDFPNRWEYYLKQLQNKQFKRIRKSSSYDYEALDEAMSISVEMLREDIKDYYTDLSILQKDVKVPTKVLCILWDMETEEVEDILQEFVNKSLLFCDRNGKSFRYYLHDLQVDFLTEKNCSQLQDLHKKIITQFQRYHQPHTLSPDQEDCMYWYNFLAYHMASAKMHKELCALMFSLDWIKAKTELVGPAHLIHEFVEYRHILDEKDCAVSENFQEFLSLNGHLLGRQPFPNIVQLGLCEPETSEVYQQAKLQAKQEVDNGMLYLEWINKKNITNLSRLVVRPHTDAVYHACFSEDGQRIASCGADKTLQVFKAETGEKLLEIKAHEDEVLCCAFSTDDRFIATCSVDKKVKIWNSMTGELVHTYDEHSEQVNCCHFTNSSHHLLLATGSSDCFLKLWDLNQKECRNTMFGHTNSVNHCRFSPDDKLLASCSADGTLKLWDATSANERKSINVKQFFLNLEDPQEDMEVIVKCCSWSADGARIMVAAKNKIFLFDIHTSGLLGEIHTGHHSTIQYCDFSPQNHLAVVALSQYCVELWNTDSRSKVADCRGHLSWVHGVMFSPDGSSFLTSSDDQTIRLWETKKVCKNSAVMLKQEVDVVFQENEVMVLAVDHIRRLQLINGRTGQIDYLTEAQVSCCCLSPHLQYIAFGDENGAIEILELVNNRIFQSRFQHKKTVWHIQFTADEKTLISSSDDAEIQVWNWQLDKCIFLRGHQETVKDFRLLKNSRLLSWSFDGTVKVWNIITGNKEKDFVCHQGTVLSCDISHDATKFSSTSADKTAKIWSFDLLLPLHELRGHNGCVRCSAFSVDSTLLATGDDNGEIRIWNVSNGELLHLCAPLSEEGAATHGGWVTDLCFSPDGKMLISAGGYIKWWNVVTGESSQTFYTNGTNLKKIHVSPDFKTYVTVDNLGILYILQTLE
In kind it is functional.

In experiment [2] the target is Intestinal-type alkaline phosphatase (Mus musculus, UniProt P24822). Put plainly: mouse intestinal alkaline phosphatase activators, dose response, biochemical, luminescence, uHTS hits (AID 488783). It is filed as functional.
Experiment [3] in a line: HEK-293T viability loss after treatment – luminescence, T-cell screen hits, cytotoxicity control for TCR NF-kB inhibitor project, dose response (AID 489026).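 Note: cells exposed to compound about 14 hours before the viability readout.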 It is filed as functional, cell-based.
In experiment [4] the target is Intestinal-type alkaline phosphatase (Homo sapiens, UniProt P09923). As to the kind of experiment: activation of human intestinal alkaline phosphatase – biochemical, dose response (AID 488873). In kind it is functional.
Experiment [5] concerns the target T2, Alkaline phosphatase, tissue-nonspecific isozyme (Homo sapiens, UniProt P05186).
T2 sequence (P05186 whole entry): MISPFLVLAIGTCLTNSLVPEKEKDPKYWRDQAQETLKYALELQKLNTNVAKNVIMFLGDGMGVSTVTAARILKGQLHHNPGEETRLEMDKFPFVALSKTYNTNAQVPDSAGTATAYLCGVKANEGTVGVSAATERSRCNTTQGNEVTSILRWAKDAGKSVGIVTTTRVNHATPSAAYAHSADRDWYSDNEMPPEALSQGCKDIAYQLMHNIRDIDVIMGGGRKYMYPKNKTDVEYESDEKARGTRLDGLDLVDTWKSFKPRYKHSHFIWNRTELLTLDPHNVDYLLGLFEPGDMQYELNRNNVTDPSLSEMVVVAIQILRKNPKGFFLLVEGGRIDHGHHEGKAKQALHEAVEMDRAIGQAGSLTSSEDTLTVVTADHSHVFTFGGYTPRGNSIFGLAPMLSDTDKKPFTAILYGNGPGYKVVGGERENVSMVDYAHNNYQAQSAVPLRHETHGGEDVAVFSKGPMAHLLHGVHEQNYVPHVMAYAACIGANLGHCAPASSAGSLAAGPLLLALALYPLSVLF
As to the kind of experiment: activation of tissue-nonspecific alkaline phosphatase – biochemical, TNAP isozyme, mouse IAP uHTS hits, selectivity assay for mouse IAP activator project, dose response (AID 488880). In kind it is functional.

Experiment [6] addresses Voltage-dependent T-type calcium channel subunit alpha-1H (Homo sapiens, UniProt O95180). As to the kind of experiment: inhibition of CACNA1H calcium flux – cell-based, SynthLib3 library, HEK293 Cav3.2, fluorescence (AID 493041). It is filed as functional.
Experiment [7] deals with HEK293. Put plainly: NOD2 signaling inhibitors in MDP-stimulated cells, cell-based, uHTS, luminescence (AID 2001). It is filed as functional. The conditions noted are these: Homo sapiens.
Experiment [8] relates to HEK293. As to the kind of experiment: inhibition of NOD1-driven NF-kB reporter – cell-based, luminescence, uHTS, primary screen (AID 1578). In kind it is functional. As to conditions: Homo sapiens.
The subject of experiment [9] is HEK293. As to the kind of experiment: cells. In kind it is functional, cell-based. As to conditions: Homo sapiens.
Experiment [10] addresses Nucleotide-binding oligomerization domain-containing protein 2 (Homo sapiens, UniProt Q9HC29). Put plainly: inhibition of NOD2-driven NF-kB reporter – cell-based, luminescence, uHTS, HEK293 (AID 1566). It is filed as functional.
In the next experiment the target is Tumor necrosis factor (Homo sapiens, UniProt P01375). As to the kind of experiment: analog potency on TNFa NF-kB signaling – cell-based, revised, SAR follow-up (AID 2337). In kind it is functional.
Experiment [11] deals with HEK293. Put plainly: cells. As to conditions: Homo sapiens.
Experiment [12] deals with HEK293. Put plainly: cells. The conditions noted are these: Homo sapiens. It is filed as functional, cell-based. This is another data set of the same source.
The test system of experiment [13] is HEK293. Put plainly: cells. It is filed as functional, cell-based. As to conditions: Homo sapiens. This is another data set of the same source.
For experiment [14], the target named is Nucleotide-binding oligomerization domain-containing protein 1 (Homo sapiens, UniProt Q9Y239). As to the kind of experiment: blockers of NOD1 pathway activity – revised, SAR follow-up (AID 2333). It is filed as functional.
Sequence of Nucleotide-binding oligomerization domain-containing protein 1 (Q9Y239 whole entry, the tested form may be a part): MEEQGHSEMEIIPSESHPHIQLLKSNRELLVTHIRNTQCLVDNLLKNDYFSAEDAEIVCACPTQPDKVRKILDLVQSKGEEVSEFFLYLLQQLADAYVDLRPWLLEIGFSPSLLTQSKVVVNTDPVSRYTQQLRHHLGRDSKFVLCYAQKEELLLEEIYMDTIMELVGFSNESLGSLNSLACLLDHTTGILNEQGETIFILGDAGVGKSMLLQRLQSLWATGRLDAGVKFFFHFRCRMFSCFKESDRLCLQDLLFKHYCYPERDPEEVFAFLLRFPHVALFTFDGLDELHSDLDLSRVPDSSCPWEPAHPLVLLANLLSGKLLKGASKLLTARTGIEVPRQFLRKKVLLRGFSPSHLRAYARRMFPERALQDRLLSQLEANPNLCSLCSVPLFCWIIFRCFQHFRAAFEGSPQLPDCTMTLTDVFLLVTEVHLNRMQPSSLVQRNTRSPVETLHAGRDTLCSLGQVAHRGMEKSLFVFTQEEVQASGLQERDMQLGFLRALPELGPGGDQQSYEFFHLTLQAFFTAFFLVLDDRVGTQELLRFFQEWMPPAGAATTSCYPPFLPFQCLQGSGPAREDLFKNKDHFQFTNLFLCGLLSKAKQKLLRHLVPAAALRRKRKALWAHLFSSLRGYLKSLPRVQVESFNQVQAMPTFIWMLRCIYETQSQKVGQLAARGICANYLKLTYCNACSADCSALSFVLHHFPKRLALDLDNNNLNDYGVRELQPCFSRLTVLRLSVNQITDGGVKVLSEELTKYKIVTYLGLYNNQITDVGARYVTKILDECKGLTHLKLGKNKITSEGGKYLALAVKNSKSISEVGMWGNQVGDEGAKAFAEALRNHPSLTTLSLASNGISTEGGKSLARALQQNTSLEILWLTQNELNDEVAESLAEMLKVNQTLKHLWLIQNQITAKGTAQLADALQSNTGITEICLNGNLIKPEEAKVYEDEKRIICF

Sequence of Nucleotide-binding oligomerization domain-containing protein 2 (Q9HC29 whole entry, the tested form may be a part): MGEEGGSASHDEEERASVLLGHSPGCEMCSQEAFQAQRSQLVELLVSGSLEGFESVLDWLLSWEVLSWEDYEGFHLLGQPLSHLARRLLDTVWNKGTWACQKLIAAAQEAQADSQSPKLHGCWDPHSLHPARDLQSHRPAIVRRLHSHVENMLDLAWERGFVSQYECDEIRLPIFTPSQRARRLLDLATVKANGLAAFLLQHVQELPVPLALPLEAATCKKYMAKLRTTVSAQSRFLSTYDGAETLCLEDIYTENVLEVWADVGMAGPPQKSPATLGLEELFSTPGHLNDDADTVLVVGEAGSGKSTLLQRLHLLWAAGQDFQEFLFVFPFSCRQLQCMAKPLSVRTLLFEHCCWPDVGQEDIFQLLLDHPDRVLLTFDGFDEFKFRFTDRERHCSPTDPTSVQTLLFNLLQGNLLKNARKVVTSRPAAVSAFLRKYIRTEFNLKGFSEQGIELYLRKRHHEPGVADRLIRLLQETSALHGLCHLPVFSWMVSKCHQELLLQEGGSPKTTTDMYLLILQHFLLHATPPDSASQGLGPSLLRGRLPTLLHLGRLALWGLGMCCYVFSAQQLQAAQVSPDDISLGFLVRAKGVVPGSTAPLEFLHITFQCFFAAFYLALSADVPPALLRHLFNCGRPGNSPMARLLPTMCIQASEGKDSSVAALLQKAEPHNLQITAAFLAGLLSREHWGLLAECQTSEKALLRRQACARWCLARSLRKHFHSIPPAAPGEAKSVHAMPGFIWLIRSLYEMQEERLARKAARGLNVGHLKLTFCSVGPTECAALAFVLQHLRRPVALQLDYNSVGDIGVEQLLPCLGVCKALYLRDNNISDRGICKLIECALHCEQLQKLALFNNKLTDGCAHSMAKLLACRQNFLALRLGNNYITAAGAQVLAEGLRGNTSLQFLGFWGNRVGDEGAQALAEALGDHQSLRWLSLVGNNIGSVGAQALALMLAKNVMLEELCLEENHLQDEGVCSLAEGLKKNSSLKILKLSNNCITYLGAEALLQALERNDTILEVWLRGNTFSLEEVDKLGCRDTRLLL
Sequence of Intestinal-type alkaline phosphatase (Homo sapiens, UniProt P09923) (P09923 whole entry): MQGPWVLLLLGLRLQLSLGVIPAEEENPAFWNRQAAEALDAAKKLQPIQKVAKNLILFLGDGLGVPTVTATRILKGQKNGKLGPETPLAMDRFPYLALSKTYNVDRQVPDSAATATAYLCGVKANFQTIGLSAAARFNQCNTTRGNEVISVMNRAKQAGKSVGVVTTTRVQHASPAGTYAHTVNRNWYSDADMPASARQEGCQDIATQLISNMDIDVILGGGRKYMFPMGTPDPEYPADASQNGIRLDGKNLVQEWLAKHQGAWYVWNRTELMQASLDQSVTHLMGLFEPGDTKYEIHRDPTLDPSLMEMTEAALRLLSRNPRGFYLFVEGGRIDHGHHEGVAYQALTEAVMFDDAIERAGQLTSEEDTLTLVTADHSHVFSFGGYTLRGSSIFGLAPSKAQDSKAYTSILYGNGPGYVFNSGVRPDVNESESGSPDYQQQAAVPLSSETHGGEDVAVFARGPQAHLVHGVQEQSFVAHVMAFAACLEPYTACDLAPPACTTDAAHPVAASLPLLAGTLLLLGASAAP
Sequence of Tumor necrosis factor (P01375 whole entry): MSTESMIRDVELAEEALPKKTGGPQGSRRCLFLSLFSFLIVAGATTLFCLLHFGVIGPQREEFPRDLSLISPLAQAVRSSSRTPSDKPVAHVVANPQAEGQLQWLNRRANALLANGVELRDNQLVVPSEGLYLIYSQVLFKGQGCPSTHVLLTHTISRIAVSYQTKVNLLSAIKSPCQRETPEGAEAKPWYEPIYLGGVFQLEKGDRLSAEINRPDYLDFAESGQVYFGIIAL
Sequence of Voltage-dependent T-type calcium channel subunit alpha-1H (O95180 whole entry): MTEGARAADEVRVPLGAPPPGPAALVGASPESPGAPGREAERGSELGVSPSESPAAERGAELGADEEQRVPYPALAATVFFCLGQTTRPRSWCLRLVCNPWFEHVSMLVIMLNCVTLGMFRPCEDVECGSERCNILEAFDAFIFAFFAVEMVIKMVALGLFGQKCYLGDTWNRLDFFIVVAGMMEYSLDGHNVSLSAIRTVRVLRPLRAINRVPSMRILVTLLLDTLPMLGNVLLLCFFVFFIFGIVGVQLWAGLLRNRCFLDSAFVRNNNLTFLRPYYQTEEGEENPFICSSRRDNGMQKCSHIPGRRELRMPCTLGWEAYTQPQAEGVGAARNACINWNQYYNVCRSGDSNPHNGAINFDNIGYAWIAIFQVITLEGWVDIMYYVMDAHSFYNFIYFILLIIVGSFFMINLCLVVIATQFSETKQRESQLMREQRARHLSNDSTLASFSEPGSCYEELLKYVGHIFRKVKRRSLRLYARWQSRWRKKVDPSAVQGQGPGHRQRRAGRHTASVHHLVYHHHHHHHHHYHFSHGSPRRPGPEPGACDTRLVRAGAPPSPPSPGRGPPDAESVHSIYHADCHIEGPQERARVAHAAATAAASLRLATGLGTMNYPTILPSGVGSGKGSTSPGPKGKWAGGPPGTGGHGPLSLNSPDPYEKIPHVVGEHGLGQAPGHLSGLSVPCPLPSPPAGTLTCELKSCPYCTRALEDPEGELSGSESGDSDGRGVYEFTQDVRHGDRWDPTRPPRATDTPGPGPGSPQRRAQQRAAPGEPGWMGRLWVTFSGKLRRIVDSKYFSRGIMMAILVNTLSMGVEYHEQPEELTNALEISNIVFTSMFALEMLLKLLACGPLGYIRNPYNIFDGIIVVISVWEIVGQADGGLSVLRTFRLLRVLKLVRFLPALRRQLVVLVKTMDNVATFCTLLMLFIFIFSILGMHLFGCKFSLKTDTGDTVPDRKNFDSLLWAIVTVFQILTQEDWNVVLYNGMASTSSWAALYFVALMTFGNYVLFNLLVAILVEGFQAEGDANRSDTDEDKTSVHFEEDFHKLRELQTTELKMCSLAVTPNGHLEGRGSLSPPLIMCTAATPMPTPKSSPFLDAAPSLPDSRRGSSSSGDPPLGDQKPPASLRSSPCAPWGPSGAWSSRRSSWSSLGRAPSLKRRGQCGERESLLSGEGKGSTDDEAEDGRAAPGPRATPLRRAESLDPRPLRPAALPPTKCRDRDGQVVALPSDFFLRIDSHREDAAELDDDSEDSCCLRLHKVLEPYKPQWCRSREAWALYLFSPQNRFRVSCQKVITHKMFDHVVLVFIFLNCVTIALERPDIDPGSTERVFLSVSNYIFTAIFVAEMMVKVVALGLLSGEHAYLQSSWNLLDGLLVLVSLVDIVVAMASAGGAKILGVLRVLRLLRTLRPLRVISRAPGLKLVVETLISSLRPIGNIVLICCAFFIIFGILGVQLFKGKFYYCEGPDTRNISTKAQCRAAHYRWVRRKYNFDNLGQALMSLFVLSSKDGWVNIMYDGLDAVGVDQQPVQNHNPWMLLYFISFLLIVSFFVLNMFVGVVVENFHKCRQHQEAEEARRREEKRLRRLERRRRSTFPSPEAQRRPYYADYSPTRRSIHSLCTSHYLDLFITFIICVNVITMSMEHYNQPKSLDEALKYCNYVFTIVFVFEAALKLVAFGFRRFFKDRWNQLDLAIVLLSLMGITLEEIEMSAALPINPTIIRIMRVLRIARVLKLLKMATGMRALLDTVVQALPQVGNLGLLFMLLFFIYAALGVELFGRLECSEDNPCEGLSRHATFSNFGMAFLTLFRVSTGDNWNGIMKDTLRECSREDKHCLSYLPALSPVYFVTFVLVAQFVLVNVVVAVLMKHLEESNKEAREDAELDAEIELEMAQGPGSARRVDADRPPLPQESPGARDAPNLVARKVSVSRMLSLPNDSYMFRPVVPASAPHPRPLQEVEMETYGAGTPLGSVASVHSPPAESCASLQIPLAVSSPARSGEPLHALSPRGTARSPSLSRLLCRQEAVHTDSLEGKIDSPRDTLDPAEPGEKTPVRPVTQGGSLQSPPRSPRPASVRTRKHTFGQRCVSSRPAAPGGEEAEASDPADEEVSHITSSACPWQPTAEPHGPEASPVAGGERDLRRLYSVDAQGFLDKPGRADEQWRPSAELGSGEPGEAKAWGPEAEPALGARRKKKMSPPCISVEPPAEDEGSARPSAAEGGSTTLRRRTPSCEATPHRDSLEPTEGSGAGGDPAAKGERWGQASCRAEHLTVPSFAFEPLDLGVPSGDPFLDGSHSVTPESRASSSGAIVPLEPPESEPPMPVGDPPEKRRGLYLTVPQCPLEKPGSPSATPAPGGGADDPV

On to `Cc1cc(O)c2c(c1O)C(=O)[C@]13C(=C2O)C(=O)[C@@H]2[C@@H](O)[C@H]1[C@@H]1[C@H](O)[C@H]3C(=O)C3=C(O)c4c(O)cc(C)c(O)c4C(=O)[C@]312`, for which the IC50 in experiment [1] was 19.5 µM (active); in experiment [3], > 80 µM (inactive). Moreover, the EC50 in [2] was 43.1 µM (active); in experiment [4], 63.3 µM (active); in experiment [5], 51.2 µM (active).
Take `CC(C)Cc1nnc(NC(=O)COc2ccc(Cl)cc2Cl)o1`: in [6], the EC50 was 1.8 µM (active).
Turning to `O=C(Nc1nnc(S(=O)(=O)N2CCCCCC2)s1)c1ccc(Br)cc1`, the IC50 is 18.1 µM (inactive) with HEK293 [7]; 14.2 µM (active) in the experiment with HEK293 [9]; > 20 µM (inactive) on Tumor necrosis factor; > 20 µM (inactive) with HEK293 [11]; > 20 µM (inactive) in the experiment with HEK293 [12]; > 20 µM (inactive) in the experiment on HEK293 [13]. Also, the IC50 in experiment [14] is 5.53 µM (active). The EC50 is 1.56 µM (active) in the experiment on HEK293 [8] and 10.4 µM (active) in experiment [10].
